Measurements taken from patent publication US11834454B2, “Alkynylphenylbenzamide compounds and applications thereof” (SHENZHEN NEWDEL BIOTECH CO., LTD., priority 2021, dated 2023).

Key:
TRKC = target: T1, TRKC (Homo sapiens, UniProt Q16288); assay: Z'-LYTE kinase activity detection, TRKC; type: biochemical
T1 construct: purchased American Life Technologies PV3617

BaF3-CD74-NTRK1-F589L = target: T2, BaF3-CD74-NTRK1-F589L (Homo sapiens, UniProt P04629, F589L); assay: Drug-resistant cell proliferation inhibition (CCK-8); type: cell-based, mouse; settings: 72 hours, read-out: drug-resistant cell viability IC50
T2 construct: fused on or other part: P04233 (HLA class II histocompatibility antigen gamma chain)
Text: (§1) BaF3 cells (mouse pre-B cells) used in this experiment were purchased from Japan Cell Bank, all of the monoclonal stable strains, BaF3-CD74-NTRK1-G667C, BaF3-CD74-NTRK1-F589L, BaF3-CD74-NTRK1-G595R, BaF3-CD74-NTRK1-G667A, BaF3-CD74-NTRK1-V573M, BaF3-ETV6-NTRK2-G639R, BaF3-ETV6-NTRK2-G709C, BaF3-ETV6-NTRK2-V617M, BaF3-ETV6-NTRK2-F633L, BaF3-ETV6-NTRK3-G696C, BaF3-ETV6-NTRK3-G696A, BaF3-ETV6-NTRK3-G623R, BaF3-ETV6-NTRK3-G623E, BaF3-ETV6-NTRK3-F617L and BaF3-ETV6-NTRK3-V601M were constructed by our laboratory, and were identified by experiments such as positive control, protein expression and gene sequencing.
(§2) The brief steps for stable strains construction were as follows: constructed pCDNA3.1(+) plasmid vector carrying genes such as BaF3-CD74-NTRK1-G667C, BaF3-CD74-NTRK1-F589L, BaF3-CD74-NTRK1-G595R, BaF3-CD74-NTRK1-G667A, BaF3-CD74-NTRK1-V573M, BaF3-ETV6-NTRK2-G639R, BaF3-ETV6-NTRK2-G709C, BaF3-ETV6-NTRK2-V617M, BaF3-ETV6-NTRK2-F633L, BaF3-ETV6-NTRK3-G696C, BaF3-ETV6-NTRK3-G696A, BaF3-ETV6-NTRK3-G623R, BaF3-ETV6-NTRK3-G623E, BaF3-ETV6-NTRK3-F617L and BaF3-ETV6-NTRK3-V601M; the plasmid was electroporated into Ba/F3 cells using Amaxa® Cell Line Nucleofector® Kit V; 48 hours after of electroporation, geneticin (G418) with a final concentration of 1000 μg/mL was added to screen for two weeks, and the interleukin 3 (IL3) was removed to continue screening to obtain polyclonal stable strains; and then single clones were selected by limiting dilution method; the stable strains were then identified by the positive drugs, Western Blot (WB), and gene sequencing; the correct monoclonal through identification can be used to study the cell proliferation inhibitory activity of the inhibitors.
(§3) Cell proliferation inhibitory activity study: The cells in logarithmic growth phase were seeded into 96-well plates at 8000-12000 cells/well, and the inhibitors at different concentrations of (0-10 μM) were added the next day, and the culture was continued for 72 hours; then 10 μL of Cell Counting Kit-8 Cell Counting Reagent (CCK-8 Reagent) was added to each well, and continued to incubate for 1-3 hours; then its absorbance at 450 nm and 650 nm were measured with a super microplate reader. The median inhibitory concentration (IC50) was calculated using medical graphing software (GraphPad Prism 8.0.0).

BaF3-CD74-NTRK1-G595R = target: T3, BaF3-CD74-NTRK1-G595R (Homo sapiens, UniProt P04629, G595R); assay: as above; type: cell-based, mouse; settings: 72 hours, read-out: drug-resistant cell viability IC50
T3 construct: constructed pCDNA3.1(+) plasmid vector carrying genes such as; fused on or other part: P04233 (HLA class II histocompatibility antigen gamma chain)
Text: as §1, §2, §3

BaF3-CD74-NTRK1-G667A = target: T4, BaF3-CD74-NTRK1-G667A (Homo sapiens, UniProt P04629, G667A); assay: as above; type: cell-based, mouse; settings: 72 hours, read-out: drug-resistant cell viability IC50
T4 construct: constructed pCDNA3.1(+) plasmid vector carrying genes such as; fused on or other part: P04233 (HLA class II histocompatibility antigen gamma chain)
Text: as §1, §2, §3

BaF3-CD74-NTRK1-G667C = target: T5, BaF3-CD74-NTRK1-G667C (Homo sapiens, UniProt P04629, G667C); assay: as above; type: cell-based, mouse; settings: 72 hours, read-out: drug-resistant cell viability IC50
T5 construct: fused on or other part: P04233 (HLA class II histocompatibility antigen gamma chain)
Text: as §1, §2, §3

BaF3-CD74-NTRK1-V573M = target: T6, BaF3-CD74-NTRK1-V573M (Homo sapiens, UniProt P04629, V573M); assay: as above; type: cell-based, mouse; settings: 72 hours, read-out: drug-resistant cell viability IC50
T6 construct: constructed pCDNA3.1(+) plasmid vector carrying genes such as BaF3-CD74-NTRK1-G667C; fused on or other part: P04233 (HLA class II histocompatibility antigen gamma chain)
Text: as §1, §2, §3

BaF3-ETV6-NTRK3-F617L = target: T7, BaF3-ETV6-NTRK3-F617L (Homo sapiens, UniProt Q16288, F617L); assay: as above; type: cell-based, mouse; settings: 72 hours, read-out: drug-resistant cell viability IC50
T7 construct: constructed pCDNA3.1(+) plasmid vector carrying genes such as; fused on or other part: P41212 (Transcription factor ETV6)
Text: as §1, §2, §3

BaF3-ETV6-NTRK3-G623E = target: T8, BaF3-ETV6-NTRK3-G623E (Homo sapiens, UniProt Q16288, G623E); assay: as above; type: cell-based, mouse; settings: 72 hours, read-out: drug-resistant cell viability IC50
T8 construct: constructed pCDNA3.1(+) plasmid vector carrying genes such as; fused on or other part: P41212 (Transcription factor ETV6)
Text: as §1, §2, §3

BaF3-ETV6-NTRK3-G623R = target: T9, BaF3-ETV6-NTRK3-G623R (Homo sapiens, UniProt Q16288, G623R); assay: as above; type: cell-based, mouse; settings: 72 hours, read-out: drug-resistant cell viability IC50
T9 construct: constructed pCDNA3.1(+) plasmid vector carrying genes such as; fused on or other part: P41212 (Transcription factor ETV6)
Text: as §1, §2, §3

BaF3-ETV6-NTRK3-G696A = target: T10, BaF3-ETV6-NTRK3-G696A (Homo sapiens, UniProt Q16288, G696A); assay: as above; type: cell-based, mouse; settings: 72 hours, read-out: drug-resistant cell viability IC50
T10 construct: constructed pCDNA3.1(+) plasmid vector carrying genes such as; fused on or other part: P41212 (Transcription factor ETV6)
Text: as §1, §2, §3

BaF3-ETV6-NTRK3-G696C = target: T11, BaF3-ETV6-NTRK3-G696C (Homo sapiens, UniProt Q16288, G696C); assay: as above; type: cell-based, mouse; settings: 72 hours, read-out: drug-resistant cell viability IC50
T11 construct: constructed pCDNA3.1(+) plasmid vector carrying genes such as; fused on or other part: P41212 (Transcription factor ETV6)
Text: as §1, §2, §3

BaF3-ETV6-NTRK3-V601M = target: T12, BaF3-ETV6-NTRK3-V601M (Homo sapiens, UniProt Q16288, V601M); assay: as above; type: cell-based, mouse; settings: 72 hours, read-out: drug-resistant cell viability IC50
T12 construct: constructed pCDNA3.1(+) plasmid vector carrying genes such as; fused on or other part: P41212 (Transcription factor ETV6)
Text: as §1, §2, §3

BaF3-ETV6-NTRK2-F633L = target: T13, BaF3-ETV6-NTRK2-F633L (Homo sapiens, UniProt Q16620, F617L); assay: as above; type: cell-based, mouse; settings: 72 hours, read-out: drug-resistant cell viability IC50
T13 construct: constructed pCDNA3.1(+) plasmid vector carrying genes such as; fused on or other part: P41212 (Transcription factor ETV6)
Text: as §1, §2, §3

BaF3-ETV6-NTRK2-G639R = target: T14, BaF3-ETV6-NTRK2-G639R (Homo sapiens, UniProt Q16620, G623R); assay: as above; type: cell-based, mouse; settings: 72 hours, read-out: drug-resistant cell viability IC50
T14 construct: constructed pCDNA3.1(+) plasmid vector carrying genes such as; fused on or other part: P41212 (Transcription factor ETV6)
Text: as §1, §2, §3

BaF3-ETV6-NTRK2-G709C = target: T15, BaF3-ETV6-NTRK2-G709C (Homo sapiens, UniProt Q16620, G693C); assay: as above; type: cell-based, mouse; settings: 72 hours, read-out: drug-resistant cell viability IC50
T15 construct: constructed pCDNA3.1(+) plasmid vector carrying genes such as; fused on or other part: P41212 (Transcription factor ETV6)
Text: as §1, §2, §3

BaF3-ETV6-NTRK2-V617M = target: T16, BaF3-ETV6-NTRK2-V617M (Homo sapiens, UniProt Q16620, V601M); assay: as above; type: cell-based, mouse; settings: 72 hours, read-out: drug-resistant cell viability IC50
T16 construct: constructed pCDNA3.1(+) plasmid vector carrying genes such as; fused on or other part: P41212 (Transcription factor ETV6)
Text: as §1, §2, §3

T6 sequence (P04629 510-796 V573M limits assumed): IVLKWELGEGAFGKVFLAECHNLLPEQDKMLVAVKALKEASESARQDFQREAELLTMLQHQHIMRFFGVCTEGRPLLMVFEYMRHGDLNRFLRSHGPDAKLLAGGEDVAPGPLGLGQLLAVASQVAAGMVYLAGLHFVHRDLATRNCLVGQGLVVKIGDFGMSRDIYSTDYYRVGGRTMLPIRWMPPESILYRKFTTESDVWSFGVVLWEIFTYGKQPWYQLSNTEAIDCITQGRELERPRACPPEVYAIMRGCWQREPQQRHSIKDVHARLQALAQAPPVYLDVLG
T2 sequence (P04629 510-796 F589L limits assumed): as the sequence (P04629 510-796 V573M limits assumed) above, with M64V, F80L counted along it
T9 sequence (Q16288 whole entry G623R, the tested form may be a part): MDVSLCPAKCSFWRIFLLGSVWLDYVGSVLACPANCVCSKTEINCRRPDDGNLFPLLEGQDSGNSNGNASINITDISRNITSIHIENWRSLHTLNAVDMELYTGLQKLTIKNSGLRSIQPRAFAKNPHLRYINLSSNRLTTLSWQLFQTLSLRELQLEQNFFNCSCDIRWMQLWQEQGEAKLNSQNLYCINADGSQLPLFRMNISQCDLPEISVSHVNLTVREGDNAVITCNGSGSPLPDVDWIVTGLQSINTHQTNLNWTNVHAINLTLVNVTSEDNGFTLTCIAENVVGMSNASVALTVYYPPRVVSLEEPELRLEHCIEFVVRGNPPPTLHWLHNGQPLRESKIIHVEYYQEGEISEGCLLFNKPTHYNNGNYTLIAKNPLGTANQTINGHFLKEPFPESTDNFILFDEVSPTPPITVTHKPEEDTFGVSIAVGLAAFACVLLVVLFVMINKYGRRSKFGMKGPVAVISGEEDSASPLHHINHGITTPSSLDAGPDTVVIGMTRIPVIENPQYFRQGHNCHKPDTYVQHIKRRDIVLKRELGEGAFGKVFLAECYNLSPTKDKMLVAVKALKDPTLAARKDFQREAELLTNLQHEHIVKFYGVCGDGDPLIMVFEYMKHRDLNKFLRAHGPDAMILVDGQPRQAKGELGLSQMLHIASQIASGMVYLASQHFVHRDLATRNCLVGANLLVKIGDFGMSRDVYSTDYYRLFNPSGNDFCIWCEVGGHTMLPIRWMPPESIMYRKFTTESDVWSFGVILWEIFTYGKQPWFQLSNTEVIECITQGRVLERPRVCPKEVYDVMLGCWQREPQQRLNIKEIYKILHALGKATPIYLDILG
T10 sequence (Q16288 whole entry G696A, the tested form may be a part): as the sequence (Q16288 whole entry G623R, the tested form may be a part) above, with R623G, G696A counted along it
T12 sequence (Q16288 whole entry V601M, the tested form may be a part): as the sequence (Q16288 whole entry G623R, the tested form may be a part) above, with V601M, R623G counted along it
T3 sequence (P04629 510-796 G595R limits assumed): as the sequence (P04629 510-796 V573M limits assumed) above, with M64V, G86R counted along it
T8 sequence (Q16288 whole entry G623E, the tested form may be a part): as the sequence (Q16288 whole entry G623R, the tested form may be a part) above, with R623E counted along it
T5 sequence (P04629 510-796 G667C limits assumed): as the sequence (P04629 510-796 V573M limits assumed) above, with M64V, G158C counted along it
T4 sequence (P04629 510-796 G667A limits assumed): as the sequence (P04629 510-796 V573M limits assumed) above, with M64V, G158A counted along it
T15 sequence (Q16620 538-822 G693C limits assumed): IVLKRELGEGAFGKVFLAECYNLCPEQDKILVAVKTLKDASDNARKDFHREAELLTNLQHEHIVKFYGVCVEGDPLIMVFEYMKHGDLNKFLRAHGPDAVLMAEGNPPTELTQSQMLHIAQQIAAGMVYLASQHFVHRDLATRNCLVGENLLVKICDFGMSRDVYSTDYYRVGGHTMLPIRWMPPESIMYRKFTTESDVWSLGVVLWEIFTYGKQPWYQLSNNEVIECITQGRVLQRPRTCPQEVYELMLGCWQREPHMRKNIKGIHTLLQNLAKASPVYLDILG
T14 sequence (Q16620 538-822 G623R limits assumed): as the sequence (Q16620 538-822 G693C limits assumed) above, with G86R, C156G counted along it
T11 sequence (Q16288 whole entry G696C, the tested form may be a part): as the sequence (Q16288 whole entry G623R, the tested form may be a part) above, with R623G, G696C counted along it
T1 sequence (Q16288 32-839): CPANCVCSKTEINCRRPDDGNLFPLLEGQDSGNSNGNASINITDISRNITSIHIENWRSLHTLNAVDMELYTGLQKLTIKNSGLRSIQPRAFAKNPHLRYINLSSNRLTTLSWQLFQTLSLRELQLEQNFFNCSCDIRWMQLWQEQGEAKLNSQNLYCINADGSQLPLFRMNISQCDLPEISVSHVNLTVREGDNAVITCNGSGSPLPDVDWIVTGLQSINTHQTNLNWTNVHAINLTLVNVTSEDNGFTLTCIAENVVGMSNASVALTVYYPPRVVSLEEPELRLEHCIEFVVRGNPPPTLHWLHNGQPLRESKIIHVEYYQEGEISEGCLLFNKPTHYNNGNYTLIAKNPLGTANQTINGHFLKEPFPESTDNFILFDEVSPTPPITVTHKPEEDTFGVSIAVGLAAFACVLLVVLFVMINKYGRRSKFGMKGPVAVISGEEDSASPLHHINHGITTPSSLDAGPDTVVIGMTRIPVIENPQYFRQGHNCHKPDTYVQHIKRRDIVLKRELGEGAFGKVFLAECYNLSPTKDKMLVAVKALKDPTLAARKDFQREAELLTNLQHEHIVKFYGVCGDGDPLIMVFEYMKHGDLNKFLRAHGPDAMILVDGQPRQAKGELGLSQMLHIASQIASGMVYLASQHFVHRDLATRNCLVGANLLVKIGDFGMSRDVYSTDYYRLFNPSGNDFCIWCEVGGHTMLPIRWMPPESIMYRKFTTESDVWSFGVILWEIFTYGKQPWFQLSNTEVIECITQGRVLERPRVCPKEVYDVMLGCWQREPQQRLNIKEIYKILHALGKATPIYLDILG
T13 sequence (Q16620 538-822 F617L limits assumed): as the sequence (Q16620 538-822 G693C limits assumed) above, with F80L, C156G counted along it
T7 sequence (Q16288 whole entry F617L, the tested form may be a part): as the sequence (Q16288 whole entry G623R, the tested form may be a part) above, with F617L, R623G counted along it
T16 sequence (Q16620 538-822 V601M limits assumed): as the sequence (Q16620 538-822 G693C limits assumed) above, with V64M, C156G counted along it

Row | IC50 (TRKC) | Structure (SMILES) | IC50 (BaF3-CD74-NTRK1-F589L) | IC50 (BaF3-CD74-NTRK1-G595R) | IC50 (BaF3-CD74-NTRK1-G667A) | IC50 (BaF3-CD74-NTRK1-G667C) | IC50 (BaF3-CD74-NTRK1-V573M) | IC50 (BaF3-ETV6-NTRK3-F617L) | IC50 (BaF3-ETV6-NTRK3-G623E) | IC50 (BaF3-ETV6-NTRK3-G623R) | IC50 (BaF3-ETV6-NTRK3-G696A) | IC50 (BaF3-ETV6-NTRK3-G696C) | IC50 (BaF3-ETV6-NTRK3-V601M) | IC50 (BaF3-ETV6-NTRK2-F633L) | IC50 (BaF3-ETV6-NTRK2-G639R) | IC50 (BaF3-ETV6-NTRK2-G709C) | IC50 (BaF3-ETV6-NTRK2-V617M)
1 | 10 to 100 nM | Cc1c(C#Cc2cnc3ccc(N4CCC(O)CC4)nn23)cccc1C(=O)Nc1cc(Cl)cc(C(F)(F)F)c1 [XS3-55, N-(3-CHLORO-5-(TRIFLUOROMETHYL)PHENYL)-3-((6-(4-HYDROXYPIPERIDIN-1-YL)IMIDAZO[1,2-B]PYRIDAZINE-3-YL)ETHYNYL)-2-METHYLBENZAMIDE] | 100 to 1000 nM | > 1000 nM | < 10 nM | < 10 nM | 10 to 100 nM | 10 to 100 nM | < 10 nM | 100 to 1000 nM | < 10 nM | < 10 nM | < 10 nM |  |  |  | 
2 | < 10 nM | Cc1c(C#Cc2cnc3ccc(N4CCC(O)CC4)nn23)cccc1C(=O)Nc1cc(CN2CCN(C)CC2)cc(C(F)(F)F)c1 [XS3-81, 3-((6-(4-HYDROXYPIPERIDIN-1-YL)IMIDAZO[1,2-B]PYRIDAZIN-3-YL)ETHYNYL)-2-METHYL-N-(3-(((4-METHYLPIPERAZIN-1-YL)METHYL)-5-(TRIFLUOROMETHYL)PHENYL)BENZAMIDE] | 100 to 1000 nM | 100 to 1000 nM | < 10 nM | < 10 nM | < 10 nM | 10 to 100 nM | < 10 nM | 10 to 100 nM | < 10 nM | < 10 nM | < 10 nM | 100 to 1000 nM | 10 to 100 nM | 10 to 100 nM | < 10 nM
3 | < 10 nM | Cc1cn(-c2cc(NC(=O)c3cccc(C#Cc4cnc5ccc(N6CCC(O)CC6)nn45)c3C)cc(C(F)(F)F)c2)cn1 [XS3-87, 3-((6-(4-HYDROXYPIPERIDIN-1-YL)IMIDAZO[1,2-B]PYRIDAZIN-3-YL)ETHYNYL)-2-METHYL-N-(3-(4-METHYL-1H-IMIDAZOL-1-YL)-5-(TRIFLUOROMETHYL)PHENYL)BENZAMIDE] | 10 to 100 nM | 100 to 1000 nM | < 10 nM | < 10 nM | < 10 nM | < 10 nM | < 10 nM | 10 to 100 nM | < 10 nM | < 10 nM | < 10 nM | 10 to 100 nM | 10 to 100 nM | < 10 nM | < 10 nM
4 | < 10 nM | Cc1c(C#Cc2cnc3ccc(N4CCOCC4)nn23)cccc1C(=O)Nc1cc(CN2CCN(C)CC2)cc(C(F)(F)F)c1 [XS3-68, 2-METHYL-N-(3-((4-METHYLPIPERAZIN-1-YL)METHYL)-5-(TRIFLUOROMETHYL)PHENYL)-3-((6-METHYLENE) LINOIMIDAZO[1,2-B]PYRIDAZIN-3-YL)ETHYNYL)BENZAMIDE] | 100 to 1000 nM | 100 to 1000 nM | < 10 nM | < 10 nM | 10 to 100 nM | 10 to 100 nM | < 10 nM | 10 to 100 nM | < 10 nM | < 10 nM | < 10 nM | 100 to 1000 nM | 10 to 100 nM | < 10 nM | < 10 nM
